# According to ChEMBL document CHEMBL1141631, “Novel ketooxazole based inhibitors of fatty acid amide hydrolase (FAAH)” (Bioorg Med Chem Lett, 2008):
# pIC50: −log10 of the molar value. Calls of active or inactive are those of the source. The rule behind the calls is not given here.
# What was measured:
# [1] = target: T1, Fatty-acid amide hydrolase 1 (Homo sapiens, UniProt O00519); assay: Inhibition of human FAAH
# T1 sequence (O00519 whole entry): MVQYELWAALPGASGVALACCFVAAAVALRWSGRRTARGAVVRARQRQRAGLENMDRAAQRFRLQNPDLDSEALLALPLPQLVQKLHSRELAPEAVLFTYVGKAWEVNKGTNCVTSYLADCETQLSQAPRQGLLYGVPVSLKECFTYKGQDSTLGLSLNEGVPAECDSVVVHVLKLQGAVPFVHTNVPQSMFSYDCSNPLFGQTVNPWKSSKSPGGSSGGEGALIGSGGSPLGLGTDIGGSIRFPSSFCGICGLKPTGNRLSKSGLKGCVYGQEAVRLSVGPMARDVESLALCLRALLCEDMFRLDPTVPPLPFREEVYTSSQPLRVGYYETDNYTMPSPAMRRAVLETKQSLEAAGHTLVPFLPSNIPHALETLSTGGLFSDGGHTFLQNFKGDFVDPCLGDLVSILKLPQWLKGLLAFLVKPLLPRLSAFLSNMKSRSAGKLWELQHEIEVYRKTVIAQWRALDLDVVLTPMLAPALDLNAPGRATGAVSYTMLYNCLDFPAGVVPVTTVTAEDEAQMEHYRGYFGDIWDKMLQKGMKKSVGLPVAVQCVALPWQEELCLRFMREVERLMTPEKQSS
# [2] = species on record: Rattus norvegicus; assay: Toxicity in spinal nerve ligated rat model assessed as motor impairment by rotarod test; format: organism-based; conditions: in vivo
# [3] = Plasma concentration in spinal nerve ligated rat model at 4 mg/kg, iv followed by infusion of 6 mg/kg/hr after 6 hrs; format: ADME, organism-based
# [4] = species on record: Rattus norvegicus; assay: Reversal of tactile allodynia in spinal nerve ligated rat model; format: functional
# [5] = Aqueous solubility in water; format: physicochemical
# [6] = system: Rattus norvegicus; assay: Reversal of tactile allodynia in spinal nerve ligated rat model at 4 mg/kg, iv followed by infusion of 6 mg/kg/hr after 6 hrs; format: functional, organism-based
Compound,pIC50 [1],other results
O=C(CCCC1CCN(C(=O)CCC2CCCCC2)CC1)c1ncco1,8.52,–
O=C(CCCC1CCN(C(=O)OCc2ccccc2)CC1)c1ncco1,8.40,–
O=C(CCCCCCc1ccccc1)c1ncco1,7.37,–
CC(C)(C)OC(=O)N1CCC(CCCC(=O)c2ncco2)CC1,8.70,–
CC(C)c1ccc(CN2CCC(CCCC(=O)c3ncco3)CC2)cc1,8.44,Activity [2]: Non-toxic; concentration at 6 h [3]: 1200 nM; ED50 [4]: 7.3 mg/kg; solubility [5]: > 400 µg/mL; Activity [6]: Active
O=C(CCCCCCc1ccccc1)c1ncc(-c2ccccn2)o1,–,solubility [5]: 16 µg/mL
O=C(CCCC1CCNCC1)c1ncco1,5.24,–
COc1cccc(CN2CCC(CCCC(=O)c3ncco3)CC2)c1,7.47,–
O=C(CCCC1CCN(S(=O)(=O)c2ccccc2)CC1)c1ncco1,8.60,–
COc1ccc(CN2CCC(CCCC(=O)c3ncco3)CC2)cc1,6.89,–
O=C(CCCC1CCN(C(=O)CCc2ccccc2)CC1)c1ncco1,7.66,–
O=C(CCCC1CCN(C(=O)c2ccccc2)CC1)c1ncco1,7.11,–
CC(C)S(=O)(=O)N1CCC(CCCC(=O)c2ncco2)CC1,6.85,–
